Data from paper PMC6222927, “Aminobenzosuberone Scaffold as a Modular Chemical Tool for the Inhibition of Therapeutically Relevant M1 Aminopeptidases” (Molecules : A Journal of Synthetic Chemistry and Natural …, 2018).
Read-outs that look alike come from different tables or passages of the source. Marks after values point to notes of the source that are not given here.

Experiments:
pAPN from porcine kidney = conditions: Dixon plots; cited from earlier work
[1] = molecular target: aminopeptidase from A. proteolytica (AAP); design: method as in PMID 21843945; conditions: ref 58; cited from earlier work
[2] = Octanol/water partition coefficient (logD7.4) by reversed-phase HPLC; conditions: pH 7.4
Protocol: The flow was 0.9 mL/min. The aminobenzosuberone derivatives were dissolved at 0.4 µM in methanol. The standards were also dissolved in methanol. Column void volume was estimated from the retention time of uracil, which was included as a non-retained internal reference with each injection.

E. coli rEcPepN = E. coli rEcPepN (Escherichia coli, UniProt P04825); assay: rEcPepN inhibition, Leu-pNA substrate, Dixon method; type: biochemical
E. coli rEcPepN, sequence (P04825 whole entry): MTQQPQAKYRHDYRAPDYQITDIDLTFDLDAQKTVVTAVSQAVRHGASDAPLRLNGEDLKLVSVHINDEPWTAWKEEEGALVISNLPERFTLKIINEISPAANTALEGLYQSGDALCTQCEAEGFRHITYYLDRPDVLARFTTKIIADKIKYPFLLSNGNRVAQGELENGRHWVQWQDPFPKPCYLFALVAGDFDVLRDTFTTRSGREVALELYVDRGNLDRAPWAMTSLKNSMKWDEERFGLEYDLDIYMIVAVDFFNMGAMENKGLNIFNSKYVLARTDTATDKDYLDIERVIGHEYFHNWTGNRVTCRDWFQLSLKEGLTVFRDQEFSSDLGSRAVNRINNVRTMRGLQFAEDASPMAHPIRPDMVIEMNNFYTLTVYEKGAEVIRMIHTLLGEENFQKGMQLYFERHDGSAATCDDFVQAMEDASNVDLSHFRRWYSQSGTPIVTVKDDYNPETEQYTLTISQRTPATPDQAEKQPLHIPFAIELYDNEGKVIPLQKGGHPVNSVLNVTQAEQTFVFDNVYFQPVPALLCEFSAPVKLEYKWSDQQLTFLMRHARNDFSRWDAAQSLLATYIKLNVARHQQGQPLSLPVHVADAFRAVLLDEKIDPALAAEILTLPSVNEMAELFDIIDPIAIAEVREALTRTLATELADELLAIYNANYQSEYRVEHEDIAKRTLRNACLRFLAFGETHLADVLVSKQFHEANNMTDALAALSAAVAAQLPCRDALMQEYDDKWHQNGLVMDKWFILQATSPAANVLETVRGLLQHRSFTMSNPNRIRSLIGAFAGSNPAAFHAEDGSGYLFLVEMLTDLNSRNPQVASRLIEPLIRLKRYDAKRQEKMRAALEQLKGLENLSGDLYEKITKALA
Protocol: Enzyme activity assays were carried out in 10 mM Tris-HCl buffer at pH 7.5 with 150 mM NaCl, enzyme, 100 µM substrate (Leu-pNA) in a 100 μL reaction at 37 °C. The absorbance was read at 405 nm. Concentrations ranging from 1 nM to 100 μM of inhibitors (dissolved in DMSO) were incubated with each of the enzymes ([…]) for 30 min at 37 °C in a 96 well plate. After addition of the substrate, immediate increase in absorption was measured. All inhibition assays were performed in triplicates and initial velocities were measured. Percentage inhibition and log values of inhibitor concentrations were plotted using SigmaPlot to determine IC50 values. Ki values were determined by the Dixon method. The assay consists of reaction buffer, enzyme and varied concentrations of Leu-pNA (25, 50, 100, 200 and 400 µM). […] Data were plotted as 1/rate versus inhibitor concentration for each substrate concentration and a linear fit was calculated by non-linear regression using SigmaPlot12.5. All the reactions were performed in triplicates, SD values were reported.

P. falciparum rPfAM1 = molecular target: T1, P. falciparum rPfAM1 (Plasmodium falciparum, UniProt O96935); assay: biochemical; type: biochemical
T1 construct: made in house; host or cells: Escherichia coli Rosetta 2 (DE3)
T1 sequence (O96935 1-1085): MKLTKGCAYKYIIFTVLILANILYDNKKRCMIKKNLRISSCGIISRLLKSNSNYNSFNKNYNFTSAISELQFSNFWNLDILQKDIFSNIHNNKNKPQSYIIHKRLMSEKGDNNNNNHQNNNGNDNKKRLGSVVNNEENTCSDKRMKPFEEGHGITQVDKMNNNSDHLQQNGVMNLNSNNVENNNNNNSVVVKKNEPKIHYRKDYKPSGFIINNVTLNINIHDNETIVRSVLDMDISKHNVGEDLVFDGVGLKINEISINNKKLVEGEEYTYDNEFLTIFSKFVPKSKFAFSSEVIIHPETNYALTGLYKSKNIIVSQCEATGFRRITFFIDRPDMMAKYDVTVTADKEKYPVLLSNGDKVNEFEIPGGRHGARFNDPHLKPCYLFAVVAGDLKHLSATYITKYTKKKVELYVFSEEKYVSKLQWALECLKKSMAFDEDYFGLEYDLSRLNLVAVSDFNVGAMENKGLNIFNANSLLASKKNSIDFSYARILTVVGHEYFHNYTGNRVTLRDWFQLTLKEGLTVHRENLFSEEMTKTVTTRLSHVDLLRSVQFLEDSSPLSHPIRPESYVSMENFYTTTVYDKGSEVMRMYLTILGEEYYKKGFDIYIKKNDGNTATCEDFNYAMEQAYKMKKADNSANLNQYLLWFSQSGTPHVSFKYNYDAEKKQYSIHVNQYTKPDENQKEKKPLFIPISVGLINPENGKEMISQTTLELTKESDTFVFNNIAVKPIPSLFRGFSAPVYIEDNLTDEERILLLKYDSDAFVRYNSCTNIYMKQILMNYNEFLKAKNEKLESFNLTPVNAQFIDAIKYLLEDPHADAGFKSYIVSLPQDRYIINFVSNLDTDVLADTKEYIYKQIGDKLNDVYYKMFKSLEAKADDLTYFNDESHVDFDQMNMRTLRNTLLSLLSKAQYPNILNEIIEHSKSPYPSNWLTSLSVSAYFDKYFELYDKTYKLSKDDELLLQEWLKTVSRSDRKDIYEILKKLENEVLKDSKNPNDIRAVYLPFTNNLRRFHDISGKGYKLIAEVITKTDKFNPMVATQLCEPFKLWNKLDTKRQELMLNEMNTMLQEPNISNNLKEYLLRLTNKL
Protocol: Initial velocities were measured with increasing concentrations of inhibitors and Ki values were determined by Dixon plots in triplicate.

[3] = molecular target: human leukotriene A4 hydrolase (rHsLTA4H); design: method as in PMID 21843945; conditions: cited from earlier work; for Ki: ref 58
[4] = molecular target: human puromycine sensitive aminopeptidase (HsPSA); conditions: cited from earlier work
[5] = molecular target: mammalian aminopeptidase N (mAPN); conditions: cited from earlier work
[6] = molecular target: human leukotriene A4 hydrolase (HsLTA4H); conditions: ref 37; cited from earlier work
[7] = molecular target: mammalian cytosolic leucine aminopeptidase (mLAPc); conditions: cited from earlier work
[8] = molecular target: T2, human endoplasmic reticulum aminopeptidase 1 (rHsERAP1) (Homo sapiens, UniProt Q9NZ08); assay: rHsERAP1 inhibition, L-AMC fluorigenic substrate; type: biochemical; conditions: 50 µM L-AMC
T2 construct: made in house; host or cells: Hi5 insect cells (baculovirus produced in sf9)
T2 sequence (Q9NZ08 whole entry): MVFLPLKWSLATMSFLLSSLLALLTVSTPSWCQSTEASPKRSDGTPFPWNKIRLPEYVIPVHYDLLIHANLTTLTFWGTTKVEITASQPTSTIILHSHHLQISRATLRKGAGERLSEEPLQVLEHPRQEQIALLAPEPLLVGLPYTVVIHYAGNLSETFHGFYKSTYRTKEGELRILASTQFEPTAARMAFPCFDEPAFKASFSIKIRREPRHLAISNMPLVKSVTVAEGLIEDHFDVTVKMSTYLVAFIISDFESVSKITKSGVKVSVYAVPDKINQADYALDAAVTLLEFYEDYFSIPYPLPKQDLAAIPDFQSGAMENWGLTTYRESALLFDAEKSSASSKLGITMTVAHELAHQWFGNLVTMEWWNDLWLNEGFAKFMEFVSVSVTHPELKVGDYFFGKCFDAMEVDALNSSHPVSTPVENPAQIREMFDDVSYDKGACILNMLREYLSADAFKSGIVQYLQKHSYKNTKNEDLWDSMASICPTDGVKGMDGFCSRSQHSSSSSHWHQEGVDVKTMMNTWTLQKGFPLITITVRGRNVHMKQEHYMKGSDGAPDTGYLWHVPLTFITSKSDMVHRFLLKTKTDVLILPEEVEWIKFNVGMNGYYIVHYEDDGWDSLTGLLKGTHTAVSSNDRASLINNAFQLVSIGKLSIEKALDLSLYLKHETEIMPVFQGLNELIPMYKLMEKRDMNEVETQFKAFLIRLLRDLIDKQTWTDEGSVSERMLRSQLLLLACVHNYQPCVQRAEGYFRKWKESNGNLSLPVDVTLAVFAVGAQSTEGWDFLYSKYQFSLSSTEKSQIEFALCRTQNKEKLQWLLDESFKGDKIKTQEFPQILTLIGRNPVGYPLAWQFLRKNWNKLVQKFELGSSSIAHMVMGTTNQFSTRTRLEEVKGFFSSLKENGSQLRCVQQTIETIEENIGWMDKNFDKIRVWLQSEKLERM
Protocol: (§1) The enzymatic activity of HsERAP1, HsERAP2 and HsIRAP was determined by following the time-dependent increase in fluorescence at 460 nm (excitation: 380 nm) of the fluorigenic substrates L-Leucine-7-amido-4-methyl coumarin (L-AMC; Sigma, Darmstatd, Germany) for HsERAP1 and HsIRAP and L-arginyl-7-amido-4-methyl coumarin (R-AMC; Sigma) for HsERAP2. […] The reaction was followed for 10 min at room temperature and the remaining enzymatic activity was calculated by measuring the slope of the time course.

[9] = molecular target: human puromycine sensitive aminopeptidase (rHsPSA) (Homo sapiens, UniProt P55786); assay: rHsPSA inhibition, Leu-pNA substrate, Dixon method; type: biochemical; conditions: triplicate, SD
human puromycine sensitive aminopeptidase (rHsPSA), sequence (P55786 whole entry): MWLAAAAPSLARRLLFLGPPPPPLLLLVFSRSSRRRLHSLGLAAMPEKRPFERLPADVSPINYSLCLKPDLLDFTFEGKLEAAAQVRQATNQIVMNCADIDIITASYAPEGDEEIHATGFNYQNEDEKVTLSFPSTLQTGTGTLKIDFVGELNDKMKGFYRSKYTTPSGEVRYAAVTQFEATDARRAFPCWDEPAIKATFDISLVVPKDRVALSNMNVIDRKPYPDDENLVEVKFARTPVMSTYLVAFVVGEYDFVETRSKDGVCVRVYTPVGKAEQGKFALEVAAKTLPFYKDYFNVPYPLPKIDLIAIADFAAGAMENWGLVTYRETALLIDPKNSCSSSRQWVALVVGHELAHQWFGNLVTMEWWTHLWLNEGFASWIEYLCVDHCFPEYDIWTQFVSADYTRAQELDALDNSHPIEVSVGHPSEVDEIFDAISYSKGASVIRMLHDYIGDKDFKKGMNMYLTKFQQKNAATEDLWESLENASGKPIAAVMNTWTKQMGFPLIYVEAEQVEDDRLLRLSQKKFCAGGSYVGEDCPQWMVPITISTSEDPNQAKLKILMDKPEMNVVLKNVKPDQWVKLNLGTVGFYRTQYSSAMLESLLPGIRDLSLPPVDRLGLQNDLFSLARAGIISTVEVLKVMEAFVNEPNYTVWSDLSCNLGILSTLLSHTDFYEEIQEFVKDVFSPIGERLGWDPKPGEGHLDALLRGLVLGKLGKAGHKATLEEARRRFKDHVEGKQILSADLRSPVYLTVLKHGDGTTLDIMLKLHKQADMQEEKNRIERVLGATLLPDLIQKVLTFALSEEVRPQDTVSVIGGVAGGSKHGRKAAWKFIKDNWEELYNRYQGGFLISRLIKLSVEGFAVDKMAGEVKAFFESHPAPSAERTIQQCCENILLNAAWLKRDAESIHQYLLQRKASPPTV
Protocol: Enzyme activity assays were carried out in 10 mM Tris-HCl buffer at pH 7.5 with 150 mM NaCl, enzyme, 100 µM substrate (Leu-pNA) in a 100 μL reaction at 37 °C. The absorbance was read at 405 nm. Concentrations ranging from 1 nM to 100 μM of inhibitors (dissolved in DMSO) were incubated with each of the enzymes ([…]) for 30 min at 37 °C in a 96 well plate. After addition of the substrate, immediate increase in absorption was measured. All inhibition assays were performed in triplicates and initial velocities were measured. Percentage inhibition and log values of inhibitor concentrations were plotted using SigmaPlot to determine IC50 values. Ki values were determined by the Dixon method. The assay consists of reaction buffer, enzyme and varied concentrations of Leu-pNA (25, 50, 100, 200 and 400 µM). […]. All the reactions were performed in triplicates, SD values were reported.

[10] = molecular target: T3, human Leucyl-cystinyl aminopeptidase (rHsIRAP) (Homo sapiens, UniProt Q9UIQ6); assay: rHsIRAP inhibition, L-AMC fluorigenic substrate; type: biochemical
T3 construct: made in house; host or cells: Hi5 insect cells (baculovirus produced in sf9)
T3 sequence (Q9UIQ6 155-1025 limits assumed): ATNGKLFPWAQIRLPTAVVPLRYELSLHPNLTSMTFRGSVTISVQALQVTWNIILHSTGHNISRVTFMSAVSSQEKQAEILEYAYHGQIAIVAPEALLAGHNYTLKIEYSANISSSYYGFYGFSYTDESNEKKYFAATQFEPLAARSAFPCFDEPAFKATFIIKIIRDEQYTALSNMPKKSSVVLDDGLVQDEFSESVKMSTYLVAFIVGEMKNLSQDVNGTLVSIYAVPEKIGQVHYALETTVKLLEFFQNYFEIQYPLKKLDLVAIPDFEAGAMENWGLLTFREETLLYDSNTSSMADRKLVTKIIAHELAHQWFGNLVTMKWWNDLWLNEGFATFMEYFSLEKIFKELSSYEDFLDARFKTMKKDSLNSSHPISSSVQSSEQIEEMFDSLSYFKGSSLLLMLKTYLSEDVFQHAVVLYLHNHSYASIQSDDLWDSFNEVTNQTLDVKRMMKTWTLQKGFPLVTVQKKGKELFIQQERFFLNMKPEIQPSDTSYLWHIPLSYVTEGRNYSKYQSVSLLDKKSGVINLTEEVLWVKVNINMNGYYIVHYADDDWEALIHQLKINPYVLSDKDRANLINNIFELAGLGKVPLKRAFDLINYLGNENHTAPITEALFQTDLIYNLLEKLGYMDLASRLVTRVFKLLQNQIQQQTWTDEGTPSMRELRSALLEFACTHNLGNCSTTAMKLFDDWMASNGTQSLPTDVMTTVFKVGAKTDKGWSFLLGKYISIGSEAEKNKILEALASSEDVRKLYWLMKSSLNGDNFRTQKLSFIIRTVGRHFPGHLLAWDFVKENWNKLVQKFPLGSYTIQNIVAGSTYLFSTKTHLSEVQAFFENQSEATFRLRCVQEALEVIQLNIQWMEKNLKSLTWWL
Protocol: The enzymatic activity of HsERAP1, HsERAP2 and HsIRAP was determined by following the time-dependent increase in fluorescence at 460 nm (excitation: 380 nm) of the fluorigenic substrates L-Leucine-7-amido-4-methyl coumarin (L-AMC; Sigma, Darmstatd, Germany) for HsERAP1 and HsIRAP and L-arginyl-7-amido-4-methyl coumarin (R-AMC; Sigma) for HsERAP2. […]. The reaction was followed for 10 min at room temperature and the remaining enzymatic activity was calculated by measuring the slope of the time course. […]

[11] = molecular target: T4, human endoplasmic reticulum aminopeptidase 2 (rHsERAP2) (Homo sapiens, UniProt Q6P179); assay: rHsERAP2 inhibition, R-AMC fluorigenic substrate; type: biochemical; conditions: 50 µM R-AMC
T4 construct: made in house; host or cells: Hi5 insect cells (baculovirus produced in sf9)
T4 sequence (Q6P179 whole entry): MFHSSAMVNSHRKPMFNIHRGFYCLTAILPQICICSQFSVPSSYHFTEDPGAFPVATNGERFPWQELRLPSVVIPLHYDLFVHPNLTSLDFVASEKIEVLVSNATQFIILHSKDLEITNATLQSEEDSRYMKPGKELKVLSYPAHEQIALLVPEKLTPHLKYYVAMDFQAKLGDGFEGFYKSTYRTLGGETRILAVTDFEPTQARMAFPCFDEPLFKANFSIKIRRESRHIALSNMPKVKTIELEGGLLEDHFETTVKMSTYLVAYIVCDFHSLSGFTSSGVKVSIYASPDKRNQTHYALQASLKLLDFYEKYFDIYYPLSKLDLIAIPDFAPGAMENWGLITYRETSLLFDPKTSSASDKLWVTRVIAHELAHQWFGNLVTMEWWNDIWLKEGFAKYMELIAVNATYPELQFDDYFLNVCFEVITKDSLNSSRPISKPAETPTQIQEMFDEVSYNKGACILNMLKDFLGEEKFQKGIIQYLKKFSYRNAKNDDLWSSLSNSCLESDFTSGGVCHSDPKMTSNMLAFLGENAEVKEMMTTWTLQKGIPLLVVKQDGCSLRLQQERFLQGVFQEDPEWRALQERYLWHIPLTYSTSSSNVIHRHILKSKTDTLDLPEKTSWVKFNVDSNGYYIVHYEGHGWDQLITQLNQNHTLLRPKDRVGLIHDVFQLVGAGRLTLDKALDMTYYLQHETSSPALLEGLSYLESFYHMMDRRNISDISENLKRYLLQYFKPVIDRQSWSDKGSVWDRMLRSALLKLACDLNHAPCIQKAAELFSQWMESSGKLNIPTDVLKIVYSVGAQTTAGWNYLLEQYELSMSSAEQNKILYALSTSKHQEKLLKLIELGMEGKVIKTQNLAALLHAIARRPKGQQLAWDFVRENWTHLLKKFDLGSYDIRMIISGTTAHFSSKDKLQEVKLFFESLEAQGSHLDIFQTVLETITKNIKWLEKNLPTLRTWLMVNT
Protocol: as §1

[12] = molecular target: human arginyl aminopeptidase B (HsAPB); conditions: ref 38; cited from earlier work
[13] = molecular target: human aminopeptidase A (HsAPA); conditions: NI = no inhibition; cited from earlier work
[14] = molecular target: P. falciparum (PfAM1) M1 aminopeptidase; conditions: ref 47; cited from earlier work
[15] = molecular target: P. falciparum M17 aminopeptidase (PfAM17); conditions: ref 45; cited from earlier work
[16] = Dixon plots, triplicate, read-out: Ki rPfAM1

For NC1CCc2ccccc2CC1=O (stereo not drawn) [21a], the Ki (pAPN from porcine kidney) is listed as 1000 nM, the Ki [1] is listed as over 100 µM and the chromatographic logD [2] is listed as 0.54. For the same molecule, the Ki (E. coli rEcPepN) was 50 ± 3 µM, the Ki (P. falciparum rPfAM1; [16]) was 15 ± 0.07 µM and the Ki [3] was over 100 µM.

In the case of CCc1cccc(CC)c1N1C(=O)c2cccc3cccc(c23)C1=O [compound 12], the IC50 ([4]; ref 55) is given as 0.8 µM and the Ki ([5]; ref 55) is given as over 100 µM.

For CC(C)C[C@@H](C(=O)N[C@H](C(=O)O)c1ccccc1)[C@H](O)C(=O)NO [compound 8], the IC50 ([4]; ref 37) is given as 0.85 µM, the IC50 [6] is given as 0.008 µM and the IC50 ([7]; ref 37) is given as 0.03 µM.

In the case of NC1CCc2c(Br)ccc(-c3ccccc3)c2CC1=O (stereo not drawn) [21i], the Ki (pAPN from porcine kidney) is given as 0.06 nM, the Ki [1] is given as 39 µM and the chromatographic logD [2] is given as 3.12. For the same molecule, the IC50 [8] was 1.6 ± 0.1 µM, the Ki [9] was 0.021 ± 0.003 µM and the IC50 [10] was 0.12 ± 0.015 µM. The Ki (E. coli rEcPepN; Dixon method, triplicate, SD, read-out: Ki rEcPepN) was 0.05 ± 0.003 µM, the “times more potent than 21c on EcPepN” value (E. coli rEcPepN; ratio of Ki values, 21i versus 21c) was 3 and the Ki (P. falciparum rPfAM1) was 0.03 ± 0.005 µM. The “% of inhibition of rHsLTA4H” value ([3]; determined at 100 µM) was 68% ^# and the IC50 [11] was 0.39 ± 0.013 µM.

For NC1Cc2ccc3ccccc3c2CC1=O (stereo not drawn) [compound 5], the Ki [12] is listed as over 1000 µM, the Ki [13] is listed as over 1000 µM and the Ki ([7]; ref 38) is listed as 3 µM.

For NC1CCc2c(ccc3ccccc23)CC1=O (stereo not drawn) [21g], the Ki (pAPN from porcine kidney) is listed as 40 nM, the Ki [1] is listed as over 100 µM and the chromatographic logD [2] is listed as 1.67. For the same molecule, the Ki (P. falciparum rPfAM1; [16]) was 15 ± 1 µM and the Ki [3] was over 100 µM.

For NC(CCc1ccccc1)P(=O)(O)CC(Cc1ccccc1)C(=O)O (stereo not drawn) [compound 2], the Ki ([5]; ref 46) is listed as 0.002 µM, the Ki [14] is listed as 0.079 µM and the Ki [15] is listed as 0.013 µM.
